Laboratory results reported in patent publication US20100048605A1, “SYNERGISTIC EFFECTS OF COMBINATIONS OF N[…] OPIOIDS FOR THE TREATMENT OF PAIN” (University of Kentucky Research Foundation, priority 2006, published 2010).

What was measured:
[1] = compared with nicotine; cited from earlier work
[2] = humans; cited from earlier work
[3] = following repeated nicotine dosing; cited from earlier work
[4] = following peripheral administration of nicotine; cited from earlier work
[5] = test system: rodent model of nociceptive pain (tail-flick test); test: Tail-flick test after intraperitoneal (IP) administration; assay type: in vivo, Sprague Dawley male rats; settings: rat
Procedure: Sprague Dawley (about 90 days old, 350 g; Harlem, IN) male rats were used. S(−)-nornicotine fumarate (2.57 mg/kg), R(+)-nornicotine fumarate (2.57 mg/kg) and morphine sulfate (3 mg/kg) were dissolved in saline and injected intraperitonealy (IP, 1 ml/kg). Each rat received three treatments: either S(−)-nornicotine alone, morphine alone and S(−)-nornicotine followed by morphine or R(+)-nornicotine alone, morphine alone and R(+)-nornicotine followed by morphine. Injections were made in randomized fashion at 48 hour intervals. The responses to acute thermal stimuli were determined using the tail-flick test [D'Amour F. E., Smith D. L. “A method for determining loss of pain sensation” J Pharmacol Exp Ther (1941), 72:74-79]. Tail-flick latency (TFL) was measured by recording the time from the onset of the heat stimulus to the tail to withdrawal of the tail from the heat source, using a standard tail-flick apparatus (IITC, Life Science). The sensitivity of the instrument was adjusted to provide a baseline about 2 seconds. Cut-off time of 10 seconds was used to avoid tail damage. TFL were determined prior to (twice, about 15 minutes apart) and at […] after administration. Data were normalized for pre-injection baseline. Areas under the curve (AUC0-180min) were calculated for normalized data by trapezoidal rule. […]

[6] = test system: rodent model of nociceptive pain (tail-flick test); test: Tail-flick test after intrathecal (IT) administration; assay type: in vivo, Sprague Dawley male rats; settings: rat
Procedure: Chronic catheterization of the spinal subarachnoid space was performed in Sprague Dawley male rats (about 90 days old, 350 g; Harlem, IN) according to minor modification of the method described by [Yaksh T and Rudy T. “Chronic catheterization of the spinal subarachnoid space” Physiol Behav (1976) 17:1031-1036]. Briefly, a 21 cm long P-10 polyethylene tubing (volume 10 mcl) which extended 8.5 cm beyond an incision in the atlanto-occipital membrane was inserted and secured to the scull with acrylic cement. The catheter rested in the vicinity of T-12 at the rostral face of the lumbar cord enlargement. The study was initiated 7 days after IT catheterization.
S(−)-nornicotine perchlorate (10 mcg), R(+)-nornicotine perchlorate (10 mcg) and morphine sulfate (0.5 mcg) were dissolved in saline and administered by the intrathecal (IT) route (10 mcl). Groups of rats was treated with S(−)-nornicotine alone and in combination with morphine, […] alone and in combination with morphine, morphine alone, and saline (10 mcl). The responses to acute thermal stimuli were determined using the tail-flick test (a baseline equal to about 2-3 seconds, cut-off time of 10 seconds). […] Data are presented as time courses of the TFL (normalized for baseline) and areas under the curve (AUC0-180min). All data are mean±SEM (n=4-6 rats). Doses refer to salts.

Row | SMILES | bioavailability (in words) [1] | plasma half-life [2] [h] | accumulation in the brain compared to nicotine [3] | residence in the rat's brain [4] [min] | residence in the rat's brain relative to nicotine [4] | analgesia of S(−)-nornicotine alone (tail-flick latency, AUC0-180min) ([5]; S(−)-nornicotine fumarate 2.57 mg/kg alone) | effect on the analgesic effect of morphine (tail-flick latency, AUC0-180min) ([5]; S(−)-nornicotine fumarate 2.57 mg/kg followed by morphine sulfate 3 mg/kg) | analgesia of S(−)-nornicotine alone (tail-flick latency, AUC0-180min) ([6]; S(−)-nornicotine perchlorate 10 mcg alone) | effect on the analgesic effect of morphine (tail-flick latency, AUC0-180min) ([6]; S(−)-nornicotine perchlorate 10 mcg with morphine sulfate 0.5 mcg)
1 | c1cncc([C@@H]2CCCN2)c1 [nornicotine] | superior | 8 | about 4 fold | 166 | about 3 times | – | – | – | –
2 | c1cncc([C@@H]2CCCN2)c1 [S(−)-nornicotine] | – | – | – | – | – | did not produce analgesia | significantly enhanced | did not produce analgesia | significantly enhanced
3 | CN1CCCC1c1cccnc1 (stereo not shown) [nicotine, reference compound] | – | – | – | 52 | – | – | – | – | –
